“Also recorded” adds a separate entry of the source.

Assay [1] deals with dermal fibroblasts derived from a diabetic patient. The assay can be described thus: Intracellular triglyceride content of dermal fibroblasts cultured with fatty acids. To be noted: 2 days of culture; for potency for reducing triglyceride compared with other fatty acid: Example 4-2, 125 μM and 500 μM, FIG. 7. Type of assay: cell-based, human. The text has this: A portion of skin tissue was sampled from a diabetic patient after the patient's consent. This sample skin tissue was subjected to primary culture (culture medium: DMEM/10% FBS) by a tissue fragment culture method (Explant method) and subsequent successive passages, and then developed into a cell line. The dermal fibroblasts derived from the patient were used to examine the effect of various fatty acids on intracellular triglyceride content. The intracellular triglyceride content of the dermal fibroblasts derived from the diabetic patient was about 5 times higher than the average intracellular triglyceride content of dermal fibroblasts derived from three healthy subjects. The long-chain fatty acids used were palmitic acid (C16:0), oleic acid (C18:1), linoleic acid ([…]), arachidonic acid (C20:4), and […] (C20:5). The medium-chain fatty acids used were heptanoic acid (C7:0) and capric acid (C10:0). These different fatty acids were separately added at 50 μM and 500 μM to the media of dermal fibroblasts from the diabetic patient described above. After 2 days of culture, the cells were collected, and the intracellular triglyceride content was measured using a triglyceride quantification kit (BioVision). The medium-chain fatty acids used were capric acid (C10:0), caprylic acid (C8:0), and 8-methylnonanoic acid ([…]). These different fatty acids were separately added at 125 μM and 500 μM to the media of dermal fibroblasts from the diabetic patient described above. After 2 days of culture, the cells were collected, and the intracellular triglyceride content was measured using a triglyceride quantification kit (BioVision). For controls, 500 μM palmitic acid (C16:0) or no fatty acid was added to the medium of the same dermal fibroblasts as those used above.

Assay [2] has as its system TG deposit atherosclerosis in the coronary artery. Description: 3D image analysis (SYNAPSE VINCENT) of lipid accumulation and vascular lumen size in designated coronary segment. The class given is in vivo, human. As for the experimental part: (§1) Before and 4 years after the start of the tricaprin/trisdecanoin diet, a standard coronary CT angiography was performed, and the images of the inside of the left anterior descending coronary artery were color-coded in the same manner as described in Example 1. The images of the designated segment of the coronary artery were analyzed with a 3D image analysis system SYNAPSE VINCENT v5.5 (FUJIFILM Corporation) to examine changes in lipid accumulation and vascular lumen size in the designated segment. In the image analysis, the area with CT values ranging −25 to 40 HU was regarded as lipid accumulation, and the area with CT values ranging 215 to 700 HU was regarded as the vascular lumen.
(§2) Angiograms of the coronary artery were taken before and 3 months after the start of the tricaprin/trisdecanoin diet. A standard coronary CT angiography was also performed, and the images were color-coded in the same manner as described in Example 1. The images of the designated segment of the coronary artery were subjected to 3D image analysis in the same manner as described in Example 2 to examine changes in lipid accumulation and vascular lumen size in the designated segment.

Assay [3] has the same test system. Description: Coronary CT angiography, color-coded images of lipid accumulation in the coronary artery. Type of assay: in vivo, human. As for the experimental part: Before and 50 days after the start of the tricaprin/trisdecanoin diet, a standard coronary CT angiography was performed to generate three-dimensional (3D) DICOM images of the left anterior descending coronary artery. The images were resampled to a voxel size of 0.1 mm^3 and color-coded according to CT values of individual voxels. Smoothing was applied between adjacent voxels. Colors were coded as follows: light gray (yellow in the color image): −25 HU to 0 HU (massive lipid accumulation); medium gray (orange in the color image): 0 HU to 40 HU (moderate lipid accumulation); dark gray (green in the color image): 40 HU to 125 HU (no lipid accumulation).
as §1, §2

The nature of assay [4]: Serum lipid levels before and after the start of the tricaprin/trisdecanoin diet. The class given is in vivo, human. To be noted: for LDL cholesterol, serum / HDL cholesterol, serum / TG (triglyceride), serum: After treatment. The method, then:
The mean values of the triglyceride, LDL cholesterol, and HDL cholesterol levels measured before the start of the tricaprin/trisdecanoin diet were compared to those measured for 4 years after the start of the tricaprin/trisdecanoin diet. […] The LDL cholesterol level was under control within the normal range (60 to 119 mg/dL).
The mean values of the triglyceride, LDL cholesterol, and HDL cholesterol levels measured before the start of the tricaprin/trisdecanoin diet were compared to those measured for 3 months after the start of the tricaprin/trisdecanoin diet. […] The LDL cholesterol level was under control at a level lower than the normal range (60 to 119 mg/dL).

The test system of assay [5] is coronary arteries of patient with idiopathic TGCV. The assay can be described thus: Angiograms of the coronary artery, blood flow. Conditions: Example 3 patient, refractory angina. The class given is in vivo, human. The method, then:
as §2

In assay [6] the test system is recurrent cerebral infarction. Description: Clinical course of the patient during the tricaprin/trisdecanoin diet. Type of assay: in vivo, human. Conditions: Example 2 patient with history of cerebral infarction; 1.5 g/day for 4 years. The text has this: A person who had suffered from refractory angina for years. The patient had diabetes with a history of middle cerebral artery occlusion and cerebral infarction. The patient presented to hospital with a chief complaint of rest and nocturnal angina. […] Their chest pain was refractory to existing medications (sublingual nitroglycerin, calcium channel blockers, β-blockers, antiplatelet agents, and statins) and rather worsened. […] The patient received tricaprin/trisdecanoin three times per day after meals in a total daily dose of 1.5 g for 4 years.

A further assay addresses T1, PCSK9 (Homo sapiens, UniProt Q8NBP7).
T1 construct: randomly assigned to receive evolocumab (monoclonal antibody against PCSK9); host or cells: patients (in vivo, endogenous circulating PCSK9)
Conditions: evolocumab group (484 patients) on statin treatment, cited from earlier work.

Setting [7] is: Example 2 patient, 1.5 g/day for 4 years.
[8] abbreviates: Example 3 patient, 4.5 g/day for 3 months.

T1 sequence (Q8NBP7 153-692): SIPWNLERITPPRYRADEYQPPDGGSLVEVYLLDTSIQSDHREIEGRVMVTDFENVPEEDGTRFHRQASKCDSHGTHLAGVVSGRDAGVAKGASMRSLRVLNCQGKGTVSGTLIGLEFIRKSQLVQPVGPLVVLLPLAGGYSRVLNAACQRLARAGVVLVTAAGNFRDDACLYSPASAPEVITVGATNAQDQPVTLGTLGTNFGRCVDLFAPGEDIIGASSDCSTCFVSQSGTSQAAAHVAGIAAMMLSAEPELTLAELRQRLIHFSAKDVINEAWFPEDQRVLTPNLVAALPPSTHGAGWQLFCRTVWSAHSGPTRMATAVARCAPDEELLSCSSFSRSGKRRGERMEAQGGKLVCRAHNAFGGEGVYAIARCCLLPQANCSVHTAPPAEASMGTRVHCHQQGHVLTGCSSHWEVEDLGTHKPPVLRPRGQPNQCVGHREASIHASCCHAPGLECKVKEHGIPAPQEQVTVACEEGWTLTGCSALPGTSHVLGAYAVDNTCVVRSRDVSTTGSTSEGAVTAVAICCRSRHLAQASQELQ

In the case of `CCCCCCCCCC(=O)O` [capric acid], in assay [1] (Example 4-1, fatty acid added at 50 μM and 500 μM, FIG. 6), the “intracellular triglyceride content relative to control cells (100%)” value was “reduction in intracellular triglyceride content”. Further, the “potency for reducing triglyceride compared with other fatty acid” value in assay [1] is recorded as “more potent medium-chain fatty acids for reducing triglyceride than palmitic acid”.
Turning to `CCCCCCCCCC(=O)OCC(COC(=O)CCCCCCCCC)OC(=O)CCCCCCCCC` [tricaprin/trisdecanoin], the Vascular lumen in assay [2] (% increase vs before diet, Example 2 patient, 1.5 g/day for 4 years, segment designated in FIG. 2, 2.2 cm, CT values 215 to 700 HU) is 260% increase; in assay [2] (% increase, Example 3 patient, 4.5 g/day for 3 months, not stented segment Circumflex 7.2 cm), 17% increase; in assay [2] (% increase, Example 3 patient, 4.5 g/day for 3 months, not stented segment LAD 3.7 cm) it was 48% increase; in assay [2] (% increase, Example 3 patient, 4.5 g/day for 3 months, not stented segment RCA 3.4 cm) it was 24% increase. For the same molecule, the Lipid accumulation in assay [2] (% reduction vs before diet, Example 2 patient, 1.5 g/day for 4 years, segment designated in FIG. 2, 2.2 cm, CT values -25 to 40 HU) worked out at 27% reduction; in assay [2] (% reduction, Example 3 patient, 4.5 g/day for 3 months, not stented segment Circumflex 7.2 cm) it was 50% reduction; in assay [2] (% reduction, Example 3 patient, 4.5 g/day for 3 months, not stented segment LAD 3.7 cm), 53% reduction; in assay [2] (% reduction, Example 3 patient, 4.5 g/day for 3 months, not stented segment RCA 3.4 cm) it was 14% reduction. Moreover, the “TG deposit atherosclerosis in the coronary artery (color-coded CT images)” value in assay [3] (Example 1 patient, person with ATGL deficiency, 6 to 9 g/day after meals for 50 days, left anterior descending coronary artery) is listed as “regression of TG deposit atherosclerosis in the coronary artery”. Moreover, the “stenosis of the vascular lumen” value in assay [3] (Example 2 patient, refractory angina, diabetes, 1.5 g/day for 4 years, segment 7 to 9 cm from coronary ostium, before diet 90% to 75% diffuse stenosis) is recorded as “about 25%”. Also, the “TG deposit atherosclerosis in the coronary artery” value in assay [3] (setting [7]) and in assay [3] (setting [8]) was “regression of TG deposit atherosclerosis in the coronary artery” throughout. Further, in assay [3] (setting [7]), the “characteristic pattern of TG deposit atherosclerosis (lipid deposition protruding from adventitial toward medial side)” value is “diminished or disappeared”. Besides, the “diameter of the vascular lumen through which the blood flowed” value in assay [3] (setting [7]) and in assay [3] (setting [8]) was “marked enlargement” each time. Further, the “LDL cholesterol, serum” value in assay [4] (Mean ± SD over 3 months, Example 3 patient, 4.5 g/day, on statin, before treatment 52 ± 2.9) came to 54 ± 1.8 mg/dL; in assay [4] (Mean ± SD over 4 years, Example 2 patient, 1.5 g/day, before treatment 95 ± 9.0) it was 91 ± 13.6 mg/dL. Further, the “HDL cholesterol, serum” value in assay [4] (Mean ± SD over 3 months, Example 3 patient, 4.5 g/day, before treatment 35 ± 1.0) was 38 ± 1.0 mg/dL; in assay [4] (Mean ± SD over 4 years, Example 2 patient, 1.5 g/day, before treatment 34.5 ± 0.5), 33 ± 4.0 mg/dL. In addition, the “TG (triglyceride), serum” value in assay [4] (Mean ± SD over 3 months, Example 3 patient, 4.5 g/day, before treatment 78 ± 2.1) was found to be 75 ± 11.3 mg/dL; in assay [4] (Mean ± SD over 4 years, Example 2 patient, 1.5 g/day, before treatment 308 ± 7.5) it was 334 ± 118.2 mg/dL. The “effect on the serum lipid levels” value in assay [4] (setting [7]) and in assay [4] (setting [8]) was “no effect on the serum lipid levels” in each case. Besides, the “blood flow to the peripheral coronary arteries” value in assay [5] (4.5 g/day for 3 months) was “clearly improved”. Moreover, the “blood flow in the coronary arteries as a whole” value in assay [5] (oral 4.5 g/day for 3 months) was “improvement in coronary blood flow; also recorded: improvement in the blood flow”. Further, the recurrent cerebral infarction entry in assay [6] was “free from recurrent cerebral infarction”.
As to `CC(C)CCCCCCC(=O)O` [8-methylnonanoic acid], the “potency for reducing triglyceride compared with other fatty acid” value in assay [1] is “more potent medium-chain fatty acids for reducing triglyceride than palmitic acid”.

B1: evolocumab: monoclonal antibody against PCSK9 (antibody, chains of the INN, looked up, V domains shown)
VH: EVQLVQSGAEVKKPGASVKVSCKASGYTLTSYGISWVRQAPGQGLEWMGWVSFYNGNTNYAQKLQGRGTMTTDPSTSTAYMELRSLRSDDTAVYYCARGYGMDVWGQGTTVTVSS
VL: ESALTQPASVSGSPGQSITISCTGTSSDVGGYNSVSWYQQHPGKAPKLMIYEVSNRPSGVSNRFSGSKSGNTASLTISGLQAEDEADYYCNSYTSTSMVFGGGTKLTVL
With B1, the “LDL cholesterol level at week 76” value with PCSK9 (92.6 mg/dL before the start of the trial) was 36.6 mg/dL. For the same molecule, in the assay with PCSK9, the “LDL cholesterol level at week 76 as % of the level before the start of the trial” value is given as “about 40%” and the “percent atheroma volume, reduction at week 76” value is listed as 0.95%.
